Measured values taken from patent US7098313B2, “DNA sequences coding for a polyol carrier and their use, in particular for the preparation of transgenic plants” (Centre National de la Recherche Scientifique, priority 2000, dated 2006).

How the values were obtained:
AgMaT1 = test: Transport of radiolabelled mannitol in yeast cells expressing AgMaT1, with competitors; format: cell-based, Apium graveolens L.; settings: MaDH4 S. cerevisiae expressing AgMaT1; 500 μM [3H]-mannitol, pH 4.5; competitor added 30 seconds before
Protocol: The cells were cultured until the start of the logarithmic phase (corresponding to an absorbance of […]), washed in distilled water and resuspended at 1% (weight/volume) in SC medium buffered to pH 4.5 with 25 mM MES. A 100 μl aliquot fraction of the cell suspension was incubated for 60, 120, 180 and 300 seconds in 100 μl of a solution containing of 500 μM [^3H]-mannitol. The reaction was stopped by adding 8 ml of water at 4° C. and by filtration through glass fibre filters (Sartorius). The radioactivity incorporated in the yeast cells was determined by counting using liquid scintillation (Packard). For the experiments with inhibitors or competitors, the product was added 30 seconds before the radioactive mannitol.
For a subsequent characterization of the function of the AgMaT1 protein, it was necessary to express the carrier in a functional manner in a heterologous system such as yeast cells. The cDNA of AgMaT1 was sub-cloned in the PstI/XhoI sites of the YEP 112A1XE shuttle vector which has a promoter/terminator box of the gene of alcohol dehydrogenase ADH1 of S. cerevisiae (Riesmeier et al., 1992). The competent MaDH4 cells were transformed with this construction and YEP 112A1XE was used as control.
All of the constructions were firstly tested for their ability to grow on mannitol as the only carbon source. […] The cells expressing AgMaT1 could grow very well on this polyol. In order to directly test the ability of the transformed cells to transport mannitol, the yeast cells were incubated in a medium containing [^3H]-mannitol for a few seconds to several minutes, the cells were washed and the radioactivity absorbed was measured by […] scintillation counting. […] However, the MaDH4 yeast strains, expressing AgMaT1, transport the [^3H]-mannitol at high speeds when they grow on a medium containing mannitol. The same result is obtained with the cells of transformed yeast growing on glycerol (data not indicated).

AgMaT1 expression = settings: saline stress for 4 weeks, daily watering with 300 mM of NaCl; RT-PCR
Protocol: The total RNA of celery phloem was isolated according to the method of Kay et al. (1987). The first strand of cDNA was reverse transcribed from the total RNA with the oligo dT primer by using the reverse transcriptase SuperScript™ II (Stratagene). […] The PCR conditions were as follows: 2 minutes at 95° C. then 30 cycles comprising denaturation for 30 seconds at 95° C., fixation for one minute at 47° C. and extension for 45 seconds at 72° C. The PCR products were analyzed by agarose gel electrophoresis and the intensity of the signal obtained was quantified using Photoshop 5.0 software (Adobe systems Inc.). The extension factor elF4A(10) (Mandel et al., 1995) was used as control gene, the expression of which is invariable.
The expression of AgMaT1 was monitored in plants having been subjected to saline stress for 4 weeks (daily watering with 300 mM of NaCl, Noiraud et al., 2000). The phloem of these plants as well as of the corresponding control plants (watered with water not containing NaCl) was removed in order to extract the RNA which was used to carry out RT-PCR reactions.

Row | Structure (SMILES) | inhibition of the absorption of mannitol (AgMaT1) | expression of AgMaT1 in the phloem (control plants taken as base 100) (AgMaT1 expression) [%]
1 | OC[C@@H](O)[C@H](O)[C@H](O)[C@@H](O)CO [dulcitol] | inhibiting by half | 
2 | [Cl-].[Na+] [NaCl] |  | 500
3 | OC[C@@H](O)[C@H](O)[C@@H](O)CO [xylitol] | inhibiting by half | 
4 | O[C@H]1[C@H](O)[C@@H](O)[C@H](O)[C@@H](O)[C@H]1O [myo-inositol] | inhibiting by half | 
5 | OC[C@@H](O)[C@@H](O)[C@H](O)[C@@H](O)CO [sorbitol] | inhibiting by half | 
